In patent publication US12606572B2, “Substituted heterocycles and uses thereof” (Kumquat Biosciences Inc., priority 2023, dated 2026):
pIC50: −log10 of the molar value.

Experiments:
KRAS WT = target: T1, KRAS WT (Homo sapiens, UniProt P01116); experiment: HTRF assay, interaction of GST-tagged K-Ras with His-tagged hSOS1 (KRAS wildtype); type: biochemical; details: <500 nM, read-out: Inhibition of KRAS WT (IC50)
T1 construct: made in house; host or cells: E. coli BL21 (DE3)
Procedure, shortened: (§1)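 GST-K-Ras (G12S or WT) with anti-GST-Eu donor mixed with His-hSOS1 and anti-6His-XL665 acceptor in ~5 mM HEPES pH 7.4, 150 mM NaCl, 1 mM DTT, 0.05% BSA, 0.0025% Igepal. After ~10 min or longer, HTRF 665/620 nm ratio read.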

KRAS G12S = target: T2, KRAS G12S (Homo sapiens, UniProt P01116, G12S); experiment: HTRF assay, interaction of GST-tagged K-Ras with His-tagged hSOS1 (KRAS G12S); type: biochemical; details: <500 nM, read-out: Inhibition of KRAS G12S (IC50)
T2 construct: made in house; host or cells: E. coli BL21 (DE3)
T2 sequence (P01116 1-188 isoform P01116-2 G12S): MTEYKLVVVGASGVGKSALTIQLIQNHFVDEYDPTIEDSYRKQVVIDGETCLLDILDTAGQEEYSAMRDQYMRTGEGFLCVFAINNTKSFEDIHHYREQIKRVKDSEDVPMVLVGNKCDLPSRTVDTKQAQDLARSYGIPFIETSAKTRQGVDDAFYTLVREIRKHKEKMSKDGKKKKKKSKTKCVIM
Procedure, shortened: as §1

T1 sequence (P01116 1-188 isoform P01116-2): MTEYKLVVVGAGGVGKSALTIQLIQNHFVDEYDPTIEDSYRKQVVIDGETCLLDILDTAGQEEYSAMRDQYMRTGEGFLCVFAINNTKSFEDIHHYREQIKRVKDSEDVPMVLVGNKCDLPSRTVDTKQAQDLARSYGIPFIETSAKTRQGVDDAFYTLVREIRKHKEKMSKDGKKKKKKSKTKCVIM

Row | SMILES | pIC50 (KRAS WT) | pIC50 (KRAS G12S)
1 | C=C(C(=O)N1CC(CN2CCOc3c(Cl)c(-c4ccc(F)c5sc(N)c(C#N)c45)c(F)c4nc(OC[C@@]56CCCN5C[C@H](F)C6)nc2c34)C1)C1CC1 [Compound 447, 2-amino-4-(8-chloro-4-((1-(2-cyclopropylacryloyl)azetidin-3-yl)methyl)-10-fluoro-2-(((2R,7aS)-2-fluorotetrahydro-1H-pyrrolizin-7a(5H)-yl)methoxy)-5,6-dihydro-4H-[1,4]oxazepino [5,6,7-de]quinazolin-9-yl)-7-fluorobenzo[b]thiophene-3-carbonitrile] | > 6.30 | > 6.30
2 | C=C(F)C(=O)N1CC(CN2CCOc3c(Cl)c(-c4ccc(F)c5sc(N)c(C#N)c45)c(F)c4nc(OC[C@@]56CCCN5C[C@H](F)C6)nc2c34)C1 [Compound 491, 2-amino-4-(8-chloro-10-fluoro-4-((1-(2-fluoroacryloyl)azetidin-3-yl)methyl)-2-(((2R,7aS)-2-fluorotetrahydro-1H-pyrrolizin-7a(5H)-yl)methoxy)-5,6-dihydro-4H-[1,4]oxazepino[5,6,7-de]quinazolin-9-yl)-7-fluorobenzo[b]thiophene-3-carbonitrile] | > 6.30 | > 6.30
3 | N#Cc1c(N)sc2c(F)ccc(-c3c(Cl)c4c5c(nc(OC[C@@]67CCCN6C[C@H](F)C7)nc5c3F)N(CC3CN(C(=O)/C=C/C5COC5)C3)CCO4)c12 [Compound 475, 2-amino-4-(8-chloro-10-fluoro-2-(((2R,7aS)-2-fluorotetrahydro-1H-pyrrolizin-7a(5H)-yl)methoxy)-4-((1-((E)-3-(oxetan-3-yl)acryloyl)azetidin-3-yl)methyl)-5,6-dihydro-4H-[1,4]oxazepino[5,6,7-de]quinazolin-9-yl)-7-fluorobenzo[b] thiophene-3-carbonitrile] | > 6.30 | > 6.30
4 | C[C@@H]1CCOc2c(Cl)c(-c3ccc(F)c4sc(N)c(C#N)c34)c(F)c3nc(OC[C@@]45CCCN4C[C@H](F)C5)nc(c23)N1C[C@@H]1CN(C(=O)n2ccnc2)[C@@H]1C1(C)CC1 [Compound 455, 4-((5R)-4-(((2S,3R)-1-(1H-imidazole-1-carbonyl)-2-(1-methylcyclopropyl)azetidin-3-yl)methyl)-9-chloro-11-fluoro-2-(((2R,7aS)-2-fluorotetrahydro-1H-pyrrolizin-7a(5H)-yl)methoxy)-5-methyl-4,5,6,7-tetrahydro-[1,5]oxazocino[4,3,2-de]quinazolin-10-yl)-2-amino-7-fluorobenzo [b]thiophene-3-carbonitrile] | > 6.30 | > 6.30
5 | Cc1cn(C(=O)N2CC[C@@H](N3CCCCc4nc(-c5ccc(F)c6sc(N)c(C#N)c56)c(F)c5nc(OC[C@@]67CCCN6C[C@H](F)C7)nc3c45)[C@H]2C)c(C)n1 [Compound 454, 2-amino-4-(11-((2R,3R)-1-(2,4-dimethyl-1H-imidazole-1-carbonyl)-2-methylpyrrolidin-3-yl)-4-fluoro-2-(((2R,7aS)-2-fluorotetrahydro-1H-pyrrolizin-7a (5H)-yl)methoxy)-8,9,10,11-tetrahydro-7H-1,3,6,11-tetraazacycloocta[de]naphthalen-5-yl)-7-fluorobenzo[b]thiophene-3-carbonitrile] | > 6.30 | > 6.30
6 | C[C@@H]1CCOc2c(Cl)c(-c3ccc(F)c4sc(N)c(C#N)c34)c(F)c3nc(OC[C@@]45CCCN4C[C@H](F)C5)nc(c23)N1CC1CCCN1C(=O)n1ccnc1 (stereo partly drawn) [Compound 414, 4-((5R)-4-((1-(1H-imidazole-1-carbonyl)pyrrolidin-2-yl)methyl)-9-chloro-11-fluoro-2-(((2R,7aS)-2-fluorotetrahydro-1H-pyrrolizin-7a(5H)-yl)methoxy)-5-methyl-4,5,6,7-tetrahydro-[1,5]oxazocino[4,3,2-de]quinazolin-10-yl)-2-amino-7-fluorobenzo[b]thiophene-3-carbonitrile] | > 6.30 | > 6.30
7 | CC1([C@@H]2[C@H](CN3CCCOc4c(Cl)c(-c5ccc(F)c6sc(N)c(C#N)c56)c(F)c5nc(OC[C@@]67CCCN6C[C@H](F)C7)nc3c45)CN2C(=O)n2ccnc2)CC1 [Compound 494, 4-(4-(((2S,3R)-1-(1H-imidazole-1-carbonyl)-2-(1-methylcyclopropyl)azetidin-3-yl)methyl)-9-chloro-11-fluoro-2-(((2R,7aS)-2-fluorotetrahydro-1H-pyrrolizin-7a(5H)-yl)methoxy)-4,5,6,7-tetrahydro-[1,5]oxazocino [4,3,2-de]quinazolin-10-yl)-2-amino-7-fluorobenzo[b] thiophene-3-carbonitrile] | > 6.30 | > 6.30
8 | N#Cc1c(N)sc2c(F)ccc(-c3c(Cl)c4c5c(nc(OC[C@@]67CCCN6C[C@H](F)C7)nc5c3F)N(CC3CN(C(=O)C5=CCCC5)C3)CCO4)c12 [Compound 462, 2-amino-4-(8-chloro-4-((1-(cyclopent-1-ene-1-carbonyl)azetidin-3-yl)methyl)-10-fluoro-2-(((2R,7aS)-2-fluorotetrahydro-1H-pyrrolizin-7a(5H)-yl)methoxy)-5,6-dihydro-4H-[1,4]oxazepino [5,6,7-de]quinazolin-9-yl)-7-fluorobenzo[b]thiophene-3-carbonitrile] | > 6.30 | > 6.30
9 | Cc1cn(C(=O)N2CC[C@@H](N3CCOc4c(Cl)c(-c5ccc(F)c6sc(N)c(C#N)c56)c(F)c5nc(OC[C@@]67CCCN6C[C@H](F)C7)nc3c45)[C@H]2C)c(C)n1 [Compound 403, 2-amino-4-(8-chloro-4-((2R,3R)-1-(2,4-dimethyl-1H-imidazole-1-carbonyl)-2-methylpyrrolidin-3-yl)-10-fluoro-2-(((2R,7aS)-2-fluorotetrahydro-1H-pyrrolizin-7a(5H)-yl)methoxy)-5,6-dihydro-4H-[1,4]oxazepino[5,6,7-de]quinazolin-9-yl)-7-fluorobenzo[b]thiophene-3-carbonitrile] | > 6.30 | > 6.30
10 | CC#CC(=O)N1C[C@@H](CN2CCOc3c(Cl)c(-c4ccc(F)c5sc(N)c(C#N)c45)c(F)c4nc(OC[C@@]56CCCN5C[C@H](F)C6)nc2c34)[C@H]1C1(C)CC1 [Compound 484, 2-amino-4-(4-(((2S,3R)-1-(but-2-ynoyl)-2-(1-methylcyclopropyl)azetidin-3-yl)methyl)-8-chloro-10-fluoro-2-(((2R,7aS)-2-fluorotetrahydro-1H-pyrrolizin-7a(5H)-yl)methoxy)-5,6-dihydro-4H-[1,4]oxazepino [5,6,7-de]quinazolin-9-yl)-7-fluorobenzo[b]thiophene-3-carbonitrile] | > 6.30 | > 6.30
11 | C=CC(=O)N1CC[C@@H](N2CCOc3c(Cl)c(-c4ccc(F)c5sc(N)c(C#N)c45)c(F)c4nc(OC[C@@]56CCCN5C[C@H](F)C6)nc2c34)[C@H]1C [Compound 470, 4-(4-((2R,3R)-1-acryloyl-2-methylpyrrolidin-3-yl)-8-chloro-10-fluoro-2-(((2R, 7aS)-2-fluorotetrahydro-1H-pyrrolizin-7a(5H)-yl)methoxy)-5,6-dihydro-4H-[1,4]oxazepino[5,6,7-de]quinazolin-9-yl)-2-amino-7-fluorobenzo[b]thiophene-3-carbonitrile] | > 6.30 | > 6.30
